# Source: publication PMC12147714 (FEMS Microbiology Letters, 2025)
# Key:
# Assay type in all cases: cell-based, Pseudomonas aeruginosa
# PAO1 producing IMP-10 = assay: MIC and checkerboard by broth microdilution, recombinant strain; conditions: antibiotic alone
# Procedure: (§1) The fractional inhibitory concentration index (FICI) was calculated and interpreted as follows: the MIC of drug A in combination/the MIC of drug A alone + the MIC of drug B in combination/the MIC drug B alone. FICI ≤ 0.5 = synergy; 0.5 < FICI ≤ 1 = additive; FICI 1 < FICI < 2 = indifference, and FICI ≥ 2 = antagonism. All susceptibility testing/checkerboard assays were performed in triplicate.
# [1] = system: clinical isolate D25 (VIM-4); assay: microbe, parasite or virus in culture
# Procedure: (§2) Thirty-two carbapenem-resistant clinical P. aeruginosa, with previously defined carbapenem-resistance mechanisms, were included.
# as §1
# [2] = system: clinical isolate D2 (IMP-1); assay: microbe, parasite or virus in culture
# Procedure: as §2, §1
# [3] = system: clinical isolate D21 (NDM-1); assay: microbe, parasite or virus in culture
# Procedure: as §2, §1
# [4] = system: clinical isolate D28 (GES-5, OXA-181); assay: microbe, parasite or virus in culture
# Procedure: as §2, §1
# [5] = system: clinical isolate D5 (IMP-1); assay: microbe, parasite or virus in culture
# Procedure: as §2, §1
# [6] = system: clinical isolate D18 (IMP-18); assay: microbe, parasite or virus in culture
# Procedure: as §2, §1
# [7] = system: clinical isolate D6 (IMP-1); assay: microbe, parasite or virus in culture
# Procedure: as §2, §1
# [8] = system: clinical isolate D29 (KPC-2); assay: microbe, parasite or virus in culture
# Procedure: as §2, §1
# [9] = system: clinical isolate D30 (KPC-2); assay: microbe, parasite or virus in culture
# Procedure: as §2, §1
# [10] = system: clinical isolate D11 (IMP-7); assay: microbe, parasite or virus in culture
# Procedure: as §2, §1
# [11] = system: clinical isolate D22 (NDM-1, VIM-2); assay: microbe, parasite or virus in culture
# Procedure: as §2, §1
# [12] = system: clinical isolate D17 (IMP-13); assay: microbe, parasite or virus in culture
# Procedure: as §2, §1
# [13] = system: clinical isolate D3 (IMP-1); assay: microbe, parasite or virus in culture
# Procedure: as §2, §1
# [14] = system: clinical isolate D31 (Permeability); assay: microbe, parasite or virus in culture
# Procedure: as §2, §1
# [15] = system: clinical isolate D26 (VIM-4); assay: microbe, parasite or virus in culture
# Procedure: as §2, §1
# [16] = system: clinical isolate D9 (IMP-7); assay: microbe, parasite or virus in culture
# Procedure: as §2, §1
# [17] = system: clinical isolate D8 (IMP-4); assay: microbe, parasite or virus in culture
# Procedure: as §2, §1
# [18] = system: clinical isolate D7 (IMP-1); assay: microbe, parasite or virus in culture
# Procedure: as §2, §1
# [19] = system: clinical isolate D16 (IMP-13); assay: microbe, parasite or virus in culture
# Procedure: as §2, §1
# [20] = system: clinical isolate D13 (IMP-7); assay: microbe, parasite or virus in culture
# Procedure: as §2, §1
# [21] = system: clinical isolate D32 (Permeability); assay: microbe, parasite or virus in culture
# Procedure: as §2, §1
# [22] = system: clinical isolate D4 (IMP-1); assay: microbe, parasite or virus in culture
# Procedure: as §2, §1
# [23] = system: clinical isolate D14 (IMP-10); assay: microbe, parasite or virus in culture
# Procedure: as §2, §1
# [24] = system: clinical isolate D10 (IMP-7); assay: microbe, parasite or virus in culture
# Procedure: as §2, §1
# [25] = system: clinical isolate D27 (VIM-36); assay: microbe, parasite or virus in culture
# Procedure: as §2, §1
# [26] = system: clinical isolate D23 (VIM-2); assay: microbe, parasite or virus in culture
# Procedure: as §2, §1
# [27] = system: clinical isolate D24 (VIM-2); assay: microbe, parasite or virus in culture
# Procedure: as §2, §1
# [28] = system: clinical isolate D1 (IMP-1); assay: microbe, parasite or virus in culture
# Procedure: as §2, §1
# [29] = system: clinical isolate D20 (NDM-1); assay: microbe, parasite or virus in culture
# Procedure: as §2, §1
# [30] = system: clinical isolate D12 (IMP-7); assay: microbe, parasite or virus in culture
# Procedure: as §2, §1
# [31] = system: clinical isolate D19 (IMP-4, OXA-181, VIM-5); assay: microbe, parasite or virus in culture
# Procedure: as §2, §1
# [32] = system: clinical isolate D15 (IMP-13); assay: microbe, parasite or virus in culture
# Procedure: as §2, §1
# [33] = system: PAO1 and PAO1 TnoprD producing one of eight different carbapenemases; assay: MIC and checkerboard, isogenic strains as a group
# From the text: Pseudomonas aeruginosa isolate, PAO1, was used alongside its isogenic counterpart, PAO1 TnoprD, which lacks a functional OprD porin (Held et al. [2012]). β-lactamases, blaIMP-1, blaIMP-10, blaIMP-13, blaNDM-1, blaSPM-1, blaVIM-1, blaVIM-2, and blaKPC-2, had previously been cloned into the pUCP24 shuttle vector (Bouvier et al. [2025]), and were transformed by electroporation into both PAO1 and PAO1 TnoprD.
# as §1, with “. MICs of DMSA, CAZ, FEP and checkerboards for the combinations, CAZ/DMSA and FEP/DMSA, were performed for all clinical isolates. All susceptibility testing results were interpreted according to CLSI guidelines (CLSI [2023]). The” for “The”
smiles,measurement,setting,value
"CC(C)(O/N=C(\C(=O)N[C@@H]1C(=O)N2C(C(=O)[O-])=C(C[n+]3ccccc3)CS[C@H]12)c1csc(N)n1)C(=O)O [CAZ, ceftazidime]",MIC,PAO1 producing IMP-10,2050 µg/mL
same,MIC,[1]; Pseudomonas aeruginosa,32 µg/mL
same,MIC,[2]; Pseudomonas aeruginosa,1020 µg/mL
same,MIC,[3]; Pseudomonas aeruginosa,4100 µg/mL
same,MIC,[4]; Pseudomonas aeruginosa,16 µg/mL
same,MIC,[5]; Pseudomonas aeruginosa,512 µg/mL
same,MIC,[6]; Pseudomonas aeruginosa,1020 µg/mL
same,MIC,[7]; Pseudomonas aeruginosa,512 µg/mL
same,MIC,[8]; Pseudomonas aeruginosa,16 µg/mL
same,MIC,[9]; Pseudomonas aeruginosa,64 µg/mL
same,MIC,[10]; Pseudomonas aeruginosa,512 µg/mL
same,MIC,[11]; Pseudomonas aeruginosa,4100 µg/mL
same,MIC,[12]; Pseudomonas aeruginosa,256 µg/mL
same,MIC,[13]; Pseudomonas aeruginosa,512 µg/mL
same,MIC,[14]; Pseudomonas aeruginosa,128 µg/mL
same,MIC,[15]; Pseudomonas aeruginosa,128 µg/mL
same,MIC,[16]; Pseudomonas aeruginosa,256 µg/mL
same,MIC,[17]; Pseudomonas aeruginosa,2050 µg/mL
same,MIC,[18]; Pseudomonas aeruginosa,1020 µg/mL
same,MIC,[19]; Pseudomonas aeruginosa,512 µg/mL
same,MIC,[20]; Pseudomonas aeruginosa,512 µg/mL
same,MIC,[21]; Pseudomonas aeruginosa,16 µg/mL
same,MIC,[22]; Pseudomonas aeruginosa,1020 µg/mL
same,MIC,[23]; Pseudomonas aeruginosa,1020 µg/mL
same,MIC,[24]; Pseudomonas aeruginosa,512 µg/mL
same,MIC,[25]; Pseudomonas aeruginosa,512 µg/mL
same,MIC,[26]; Pseudomonas aeruginosa,32 µg/mL
same,MIC,[27]; Pseudomonas aeruginosa,32 µg/mL
same,MIC,[28]; Pseudomonas aeruginosa,1020 µg/mL
same,MIC,[29]; Pseudomonas aeruginosa,4100 µg/mL
same,MIC,[30]; Pseudomonas aeruginosa,512 µg/mL
same,MIC,[31]; Pseudomonas aeruginosa,4100 µg/mL
same,MIC,[32]; Pseudomonas aeruginosa,512 µg/mL
same,interaction with DMSA as indicated by the FICIs,"[33]; SPM-1 and VIM-1 strains, DMSA 200 mg/l",synergy (FICI ≤ 0.5 = synergy)
same,interaction with DMSA as indicated by the FICIs,"[33]; strains producing IMP-1, IMP-10 or IMP-13, with and without functional OprD, all three DMSA concentrations (100, 200, 300 mg/l)",synergy (FICI ≤ 0.5 = synergy)
"O=C(O)[C@@H](S)[C@@H](S)C(=O)O [DMSA, meso-dimercaptosuccinic acid]",MIC,"[1]; isolate D25, drug alone",600 µg/mL
same,MIC,"[2]; isolate D2, drug alone",600 µg/mL
same,MIC,"[3]; isolate D21, drug alone",700 µg/mL
same,MIC,"[4]; isolate D28, drug alone",600 µg/mL
same,MIC,"[5]; isolate D5, drug alone",800 µg/mL
same,MIC,"[6]; isolate D18, drug alone",600 µg/mL
same,MIC,"[7]; isolate D6, drug alone",800 µg/mL
same,MIC,"[8]; isolate D29, drug alone",800 µg/mL
same,MIC,"[9]; isolate D30, drug alone",800 µg/mL
same,MIC,"[10]; isolate D11, drug alone",600 µg/mL
same,MIC,"[11]; isolate D22, drug alone",700 µg/mL
same,MIC,"[12]; isolate D17, drug alone",700 µg/mL
same,MIC,"[13]; isolate D3, drug alone",700 µg/mL
same,MIC,"[14]; isolate D31, drug alone",1000 µg/mL
same,MIC,"[15]; isolate D26, drug alone",700 µg/mL
same,MIC,"[16]; isolate D9, drug alone",700 µg/mL
same,MIC,"[17]; isolate D8, drug alone",500 µg/mL
same,MIC,"[18]; isolate D7, drug alone",800 µg/mL
same,MIC,"[19]; isolate D16, drug alone",600 µg/mL
same,MIC,"[20]; isolate D13, drug alone",700 µg/mL
same,MIC,"[21]; isolate D32, drug alone",700 µg/mL
same,MIC,"[22]; isolate D4, drug alone",900 µg/mL
same,MIC,"[23]; isolate D14, drug alone",900 µg/mL
same,MIC,"[24]; isolate D10, drug alone",600 µg/mL
same,MIC,"[25]; isolate D27, drug alone",800 µg/mL
same,MIC,"[26]; isolate D23, drug alone",700 µg/mL
same,MIC,"[27]; isolate D24, drug alone",600 µg/mL
same,MIC,"[28]; isolate D1, drug alone",600 µg/mL
same,MIC,"[29]; isolate D20, drug alone",700 µg/mL
same,MIC,"[30]; isolate D12, drug alone",600 µg/mL
same,MIC,"[31]; isolate D19, drug alone",600 µg/mL
same,MIC,"[32]; isolate D15, drug alone",500 µg/mL
same,MIC to DMSA alone,[33]; all isogenic strains,900 µg/mL
